Like-named read-outs stand apart in the source and are kept apart here.
How the values were obtained:
mu opioid receptor (MOR) = mu opioid receptor (MOR) (Homo sapiens (Human), UniProt P35372); assay: Competitive radioligand binding at MOR ([3H] Naloxone)
Experimental: (§1) Receptor Binding at MOR and NMDA.
(§2) Affinities of various compounds were measured in vitro using competitive radioligand binding assays. Serial dilutions of test compounds were incubated with membranes prepared from CHO-K1 cells expressing the mu opioid receptor (MOR; for opioid receptor binding) or rat forebrain membranes (for NMDA receptor binding). 2 nM [^3H] Naloxone (MOR) or 0.2 nM [^3H] MK801 (NMDA) were used as the specific, competitive radioligands. 10 uM Naloxone (MOR), or 10 uM MK801 (NMDA) was used to determine non-specific binding. Bound radioactivity was measured using a scintillation counter & IC50 values for test compounds were determined by non-linear regression analysis using a one-site competition model (Graph Pad Prizm). Due to each test compound being solubilized in a buffered system for the assay, the results presented herein reflect the free base activity.

hMOR = hMOR (Homo sapiens (Human), UniProt P35372); assay: cAMP accumulation assay (inhibition of forskolin-stimulated cAMP) in CHO-K1 cells stably expressing hMOR; format: cell-based
Experimental: Mu opioid agonist activity for selected compounds was determined by the inhibition of forskolin-stimulated cAMP accumulation following MOR activation in CHO-K1 cells stably expressing the hMOR. […] IC50 values were calculated from […] analysis of the concentration-response curves using Graph Pad Prizm.

NMDA receptor = assay: Competitive radioligand binding at NMDA receptor ([3H] MK801), rat forebrain membranes; details: 0.2 nM [3H] MK801, reflects free base activity
Experimental: as §1, §2

[1] = membranes from CHO-K1 cells expressing MOR, 2 nM [3H] Naloxone, reflects free base activity, read-out: MOR IC50
[2] = hMOR-expressing CHO-K1 cells, 10 μM forskolin, 60 minute incubation, read-out: MOR cAMP IC50

COCCOCCOCCO[C@@H]1CC[C@H]2[C@H]3Cc4ccc(O)cc4[C@@]2(CCN3C)C1 [Compound 47, (6β)-6-{2-[2-(2-methoxyethoxy)ethoxy]ethoxy}-17-methylmorphinan-3-ol]
IC50 (mu opioid receptor (MOR)): 0.1 to 10 nM
IC50 (hMOR): 0.1 to 10 nM

COCCOCCOCCOCCOCCOCC(=O)Nc1nc2cc3c(cc2s1)C[C@@H]1[C@@H]2CCCC[C@]32CCN1C [Compound 69]
IC50 (mu opioid receptor (MOR); [1]): 100 to 1000 nM
IC50 (hMOR; [2]): 100 to 1000 nM
IC50 (NMDA receptor): 1000 to 10000 nM

COCCNC(=O)Oc1ccc2c(c1)[C@@]13CCCC[C@H]1[C@@H](C2)N(C)CC3 [Compound 18, 17-methylmorphinan-3-yl (2-methoxyethyl)carbamate]
IC50 (mu opioid receptor (MOR)): 100 to 1000 nM
IC50 (hMOR): 100 to 1000 nM
IC50 (NMDA receptor): 1000 to 10000 nM

COCCN1CC[C@]23CC(=O)CC[C@H]2[C@H]1Cc1ccc(O)cc13 [Compound 3, 3-hydroxy-17-(2-methoxyethyl)morphinan-6-one]
IC50 (mu opioid receptor (MOR)): 0.1 to 10 nM
IC50 (hMOR): 0.1 to 10 nM

CN1CC[C@]23CCCC[C@H]2[C@H]1Cc1ccc(Nc2nccs2)cc13 [Compound 46, 17-methyl-N-(1,3-thiazol-2-yl)morphinan-3-amine]
IC50 (mu opioid receptor (MOR)): 10 to 100 nM
IC50 (hMOR): 10 to 100 nM
IC50 (NMDA receptor): 100 to 1000 nM

COCCOCCOCCN1CC[C@]23CCCC[C@H]2[C@H]1Cc1ccc(O)cc13 [Compound 16, 17-{2-{2-(2-methoxyethoxy)ethoxy]ethyl}-morphinan-3-ol]
IC50 (mu opioid receptor (MOR); [1]): > 1000 nM
IC50 (hMOR; [2]): > 1000 nM

COCCOc1c(O)ccc2c1[C@@]13CCCC[C@H]1[C@@H](C2)N(C)CC3 [Compound 22, 4-(2-methoxyethoxy)-17-methylmorphinan-3-ol]
IC50 (mu opioid receptor (MOR)): 10 to 100 nM
IC50 (hMOR): 10 to 100 nM

COCCOCCN1CC[C@]23CCCC[C@H]2[C@H]1Cc1ccc(O)cc13 [Compound 15, 17-[2-(2-methoxyethoxy)ethyl]morphinan-3-ol]
IC50 (mu opioid receptor (MOR)): 10 to 100 nM
IC50 (hMOR): 10 to 100 nM
IC50 (NMDA receptor): > 10000 nM

COCCOCCOc1ccc(Nc2ccc3c(c2)[C@@]24CCCC[C@H]2[C@@H](C3)N(C)CC4)cc1 [Compound 36, N-{4-[2-(2-methoxyethoxy)ethoxy]phenyl}-17-methylmorphinan-3-amine]
IC50 (mu opioid receptor (MOR); [1]): 10 to 100 nM
IC50 (hMOR; [2]): 10 to 100 nM
IC50 (NMDA receptor): 1000 to 10000 nM

COCCOCCOCCOCCOCCCC(=O)Nc1nc2cc3c(cc2s1)C[C@@H]1[C@@H]2CCCC[C@]32CCN1C [Compound 80, N-[(4aR,5R,11bR)-14-methyl-2,3,4,4a,5,6-hexahydro-1H-5,11b-(epiminoethano)phenanthro[3,2-d][1,3]thiazol-9-yl]-2,5,8,11,14-pentaoxaoctadecan-18-amide]
IC50 (mu opioid receptor (MOR); [1]): > 1000 nM
IC50 (NMDA receptor): 1000 to 10000 nM

COCCOCCOCCOCCOCCNc1nc2ccc3c(c2s1)[C@@]12CCCC[C@H]1[C@@H](C3)N(C)CC2 [Compound 77, (7R,7aR,11aR)—N-(2,5,8,11,14-pentaoxahexadecan-16-yl)-14-methyl-7,7a,8,9,10,11-hexahydro-6H-7,11a-(epiminoethano)phenanthro[3,4-d]thiazol-2-amine]
IC50 (mu opioid receptor (MOR); [1]): > 1000 nM
IC50 (NMDA receptor): > 10000 nM

CN1CC[C@]23CCCC[C@H]2[C@H]1Cc1ccc(Nc2cncnc2)cc13 [Compound 53, 17-methyl-N-(pyrimidin-5-yl)morphinan-3-amine]
IC50 (mu opioid receptor (MOR)): 10 to 100 nM
IC50 (NMDA receptor): > 10000 nM

COc1ccccc1Nc1ccc2c(c1)[C@@]13CCCC[C@H]1[C@@H](C2)N(C)CC3 [Compound 30, N-(2-methoxyphenyl)-17-methylmorphinan-3-amine]
IC50 (mu opioid receptor (MOR)): 10 to 100 nM
IC50 (hMOR): 10 to 100 nM
IC50 (NMDA receptor): 1000 to 10000 nM

CN1CC[C@]23CCCC[C@H]2[C@H]1Cc1cc2ccc(=O)[nH]c2cc13 [Compound 102, (4aR,5R,12bR)-15-methyl-1,2,3,4,4a,5,6,11-octahydro-10H-5,12b-(epiminoethano)naphtho[2,1-g]quinolin-10-one]
IC50 (mu opioid receptor (MOR); [1]): > 1000 nM
IC50 (NMDA receptor): > 10000 nM

COc1ccc(NC(=O)c2ccc3c(c2)[C@@]24CCCC[C@H]2[C@@H](C3)N(C)CC4)cc1 [Compound 38, N-(4-methoxyphenyl)-17-methylmorphinan-3-carboxamide]
IC50 (mu opioid receptor (MOR)): 100 to 1000 nM
IC50 (NMDA receptor): > 10000 nM

CN1CC[C@]23CCCC[C@H]2[C@H]1Cc1cc2nnc(N)nc2cc13 [Compound 95, (4aR,5R,12bR)-15-methyl-2,3,4,4a,5,6-hexahydro-1H-5,12b-(epiminoethano)phenanthro[3,2-e][1,2,4]triazin-10-amine]
IC50 (mu opioid receptor (MOR); [1]): > 1000 nM
IC50 (NMDA receptor): 1000 to 10000 nM

COc1cccc(C(=O)Nc2ccc3c(c2)[C@@]24CCCC[C@H]2[C@@H](C3)N(C)CC4)c1 [Compound 25, 3-methoxy-N-((4bR,8aR,9R)-11-methyl-6,7,8,8a,9,10-hexahydro-5H-9,4b-(epiminoethano)phenanthren-3-yl)benzamide]
IC50 (mu opioid receptor (MOR); [1]): > 1000 nM
IC50 (NMDA receptor): > 10000 nM

Reference: patent US10766864B2, “Morphinan derivatives for the treatment of neuropathic pain” (Nektar Therapeutics, priority 2015, dated 2020)
